These results are taken from patent US10660874B2, “Ecteinamycin, compositions and uses thereof” (Wisconsin Alumni Research Foundation, priority 2014, dated 2020).

For data set [1], the system named is S. cerevisiae deletion mutants. As to the kind of experiment: Chemical genomic analysis in yeast deletion mutants. It is filed as cell-based, Saccharomyces cerevisiae. The conditions noted are these: 250 μg/mL; for Fold Change in abundance relative to solvent control: 48 h. As for the experimental part: A chemical genomic analysis of ecteinamycin was performed as described previously (Fling, S.-Y.; Sofiyev, V.; Schneiderman, J.; Hirschfeld, A. F.; Victor, R. E.; Woods, K.; Piotrowski, J. S.; Deshpande, R.; Li, S. C.; de Voogd, N. J.; Myers, C. L.; Boone, C.; Andersen, R. J.; Turvey, S. E. ACS Chem. Biol. 2014, 9, 247-257.). The optimal inhibitory concentration of ecteinamycin for chemical genomic profiling (70-80% growth versus solvent control in YP-Glucose media after 24 h of growth) was determined. A concentration of 250 μg/mL inhibited growth within this range. Two hundred μL cultures of a pooled, genome wide collection of S. cerevisiae deletion mutants with 250 μg/mL ecteinamycin or a DMSO control were grown in triplicate for 48 h at 30° C. The genomic DNA was extracted using the Epicentre MasterPure™ Yeast DNA purification kit. Mutant-specific molecular barcodes were amplified with specially designed multiplex primers containing adapters for Illumina sequencing. The barcodes were sequenced using an Illumina HiSeq2500 Rapid Run platform. Three replicates of each condition (ecteinamycin vs. DMSO) were sequenced. The barcode counts for each yeast deletion mutant in the presence of ecteinamycin were normalized against the DMSO control conditions to generate a Z-score to define sensitivity or resistance of individual strains (the chemical genomic profile). In addition, differential abundance analysis was calculated for each mutant's response to the ecteinamycin versus DMSO using edgeR. The mutants with very low counts (<5) were filtered out before using the edgeR package (version 3.4.2) to calculate an adjusted P-value and log fold change for each mutant. A Bonferroni corrected hypergeometric distribution test was used to search for significant enrichment of GO terms among the top sensitive and resistant deletion mutants with a P-value less than 0.0001.^42 The chemical genomic profile of ecteinamycin was compared against existing chemical genomic datasets by Pearson correlation.
In parallel, chemical genomic profiling with the yeast, Saccharomyces cerevisiae, was used to investigate the mechanism of action of ecteinamycin. This method has been used for determining the mechanism of action and molecular target for many bioactive compounds, including natural products. Ecteinamcyin was screened against over four thousand deletion mutant yeast strains, genomic DNA was extracted, and mutant-specific DNA barcodes were amplified and sequenced by Illumina sequencing. Ecteinamycin sensitive and resistant mutants were determined by quantification of DNA-barcodes, providing a chemical genomic profile, which was used to evaluate the mechanism of action.

The nature of data set [2]: Pharmacokinetic study in mice, ecteinamycin in plasma. It is filed as in vivo. The conditions noted are these: female, FVB, mouse, oral 5 mg/kg vs retro-orbital IV 2.5 mg/kg, dose adjusted. As to the method: An Agilent 1100 LCMS system (ESI-MS positive mode) with a Phenomenex Kinetix C18 column (100×4.6 mm, 2.6 μm) at a flow rate of 0.5 mL/min was used for all analysis. The gradient was from 75% MeOH/25% 1 mM ammonium acetate in H2O to 93% MeOH/7% 1 mM ammonium acetate in H2O in 11 mins, then 93% MeOH/7% 1 mM ammonium acetate in H2O to 100% MeOH for 0.1 min and holding 100% MeOH for 3.9 mins.
A standard curve was constructed using known concentrations of ecteinamycin (1000, 500, 250, 125, 62.50, 31.25, 15.625, 7.8125, 3.90625 ng/mL) in blank human plasma. Linear regression analysis was performed on the peak areas, and the resulting linear equation was used to calculate the ecteinamycin concentrations of quality control (QC) standards of ecteinamycin in human plasma (800, 200, 25, 12.5 ng/mL). The limit of detection was determined to be 31.25 ng/mL, and the limit of quantification was determined to be 62.50 ng/mL.
Eight-to-nine-week-old FVB female mice weighing 20.5 to 25.6 g were used for all studies. […]
Ecteinamycin was formulated with polyethylene glycol (PEG) 300, 25 mM Tris (1:1), pH 8.9. […] Sample quantitation was determined by weighted (R^2) linear regression using a 9-point curve. […] The % oral bioavailability was calculated from the concentration of ecteinamycin (adjusted for dose) in plasma between oral and IV dose: [ecteinamycinoral]/[ecteinamycinIV]×100. […]

One may read the bioavailability as the share of a dose that reaches the circulation, judged against a reference dose that is usually intravenous.

For the compound `C=C1OC(=O)C(C(=O)CC2OC(C(C)C(O)C(CC)C(=O)C(C)(O)C3CCC(CC)(C4CCC(O)(C(C)OC)C(C)O4)O3)C(C)CC2C)=C1O` (centres unmarked) [ecteinamycin], the “growth versus solvent control” value in data set [1] (YP-Glucose media, 24 h) is given as 70-80%. Further, the “Fold Change in abundance relative to solvent control” value is on record as 0.076 in data set [1] (APL4 deletion mutant (sensitive)); 0.037 in data set [1] (APM2 deletion mutant (sensitive)); 0.040 in data set [1] (DRS2 deletion mutant (sensitive)); 3.564 in data set [1] (EGT2 deletion mutant (resistant)); 3.379 in data set [1] (HAL9 deletion mutant (resistant)); 3.732 in data set [1] (IRC25 deletion mutant (resistant)). The “Fold Change in abundance relative to solvent control” value in data set [1] (MRH1 deletion mutant (resistant)) was found to be 4.129; in data set [1] (MSS11 deletion mutant (resistant)) it was 2.585; in data set [1] (PAR32 deletion mutant (sensitive)), 0.017; in data set [1] (PHO2 deletion mutant (resistant)), 5.974; in data set [1] (PHO84 deletion mutant (resistant)) it was 2.986; in data set [1] (PRE9 deletion mutant (resistant)), 5.995. The “Fold Change in abundance relative to solvent control” value turned out to be 0.136 in data set [1] (TRP4 deletion mutant (sensitive)); 10.979 in data set [1] (UME6 deletion mutant (resistant)); 0.087 in data set [1] (VPS38 deletion mutant (sensitive)); 0.122 in data set [1] (YMR010W deletion mutant (sensitive)); 0.145 in data set [1] (YOL162W deletion mutant (sensitive)); 4.953 in data set [1] (YPL205C deletion mutant (resistant)). Further, the figures for the “Fold Change in abundance relative to solvent control” value in data set [1] (YPR089W deletion mutant (sensitive)) and in data set [1] (YPT7 deletion mutant (sensitive)) were 0.110 and 0.016, respectively. In data set [2] (after 30 mins), this compound yielded a bioavailability at 30 min of 10.9%. The compound also had a bioavailability at 1 h in data set [2] (after 1 h) of 29.3%.
